Results taken from patent US20240108004A1, “METHOD FOR CONTROLLING INSECTS IN CROP PLANTS, SEEDS AND COMPOSITION” (Nippon Soda Co., Ltd., priority 2021, published 2024).

Experiments:
[1] = test system: wire worm (Agriotes sp.) larvae; assay: Efficacy test of corn seed treatment against Agriotes sp.; assay type: in vivo; settings: corn seeds coated, 42 days; for Healthy stock ratio: 50 g compound per 50,000 seeds, 12 larvae per 12-seed container, outdoors
Text: Efficacy test of corn seed treatment against Agriotes sp.
(§1) The compound (1) (30 parts), tristyryl-based surfactant (6.0 parts), dioctylsulfosuccinate metal salt (1.5 parts), silicone-based defoamer (1.2 parts), xanthan gum (0.2 parts), 1,2-benzisothiazolin-3-one (0.1 parts), propylene glycol (5.0 parts), and water (56 parts) were mixed to prepare a reagent solution.
Corn seeds were coated with the reagent solution so that the treatment amount of the compound (1) was 50 g per 50,000 seeds.
Further, corn seeds were similarly coated with tefluthrin as a control agent so that the treatment amount was 10 g per 50,000 seeds.
The treated seeds were planted in a 12-seed container and inoculated with 12 wire worm (Agriotes sp.) larvae. The container was placed outdoors, and 42 days later, the number of healthy stocks and the number of damaged stocks were investigated to determine the efficacy. The test was repeated 4 times.
The healthy stock ratio was calculated using the following formula.
Healthy stock ratio (%)=100×(number of healthy stocks/number of seeds)

[2] = test system: Phyllotreta striolata; assay: Efficacy test of rape seed treatment against Phyllotreta striolata; assay type: in vivo; settings: rape seeds coated, 10 g per 100 kg of seeds; inoculated 14 days after planting; 6 days after releasing the insects; 25° C., humidity 65%
Text: Efficacy test of rape seed treatment against Phyllotreta striolata
as §1, with “(I)” for “(1)”
Rape seeds were coated with the reagent solution so that the treatment amount of the compound (I) was 10 g per 100 kg of seeds.
The treated seeds were planted in a 10-seed pot and raised in a greenhouse for 14 days. After that, each pot was inoculated with 5 Phyllotreta striolata. The pots were stored in a constant temperature room at a temperature of 25° C. and at a humidity of 65%.
The life/death determination was made 6 days after releasing the insects, and the insecticidal rate was calculated by the following formula. The test was repeated 3 times.
Insecticidal rate (%)=(number of dead insects/number of test insects)×100

Structure (SMILES) | healthy stock rate ([1]; control agent, 10 g per 50,000 seeds) [%] | Healthy stock ratio [1] [%] | Insecticidal rate [2] [%] | Healthy stock ratio ([1]; unit not given)
Cc1c(F)c(F)c(COC(=O)[C@@H]2[C@H](/C=C(\Cl)C(F)(F)F)C2(C)C)c(F)c1F (racemic) [tefluthrin, reference compound] | 62.5 |  |  | 
CCS(=O)(=O)c1cc(C2CC2)cnc1-c1ncc(C=C(Cl)C(F)(F)F)n1C [formula (II)] |  | 83.3 | 100 | 
CCS(=O)(=O)c1cc(C2CC2)cnc1-c1ncc(C(F)C(F)(C(F)(F)F)C(F)(F)F)n1C (centres unmarked) [formula (III)] |  |  | 100 | 81.3
